Measurements as given in paper PMC7892437 (Frontiers in Pharmacology, 2021).
Several values for one entry are separate records, joined by “and”; a condition that tells them apart may be missing. Equal entries are not always repeated. Where two headings read alike, the source gives them in different places.

Key:
VSV-G = assay type: cell-based, vesicular stomatitis virus
[1] = tested on: VSV-SARS-CoV-2-Sdel18 pseudovirus; assay: microbe, parasite or virus in culture; assay type: cell-based
Ebola virus = conditions: ref Johansen et al., 2013; cited from earlier work
in vitro = conditions: hamster
[2] = tested on: SARS-CoV-2 BetaCoV/Shenzhen/SZTH-003/2020 strain; assay: microbe, parasite or virus in culture; assay type: cell-based; conditions: for inhibitory effect relative to Chloroquine diphosphate: authentic SARS-CoV-2 assay, in vitro
[3] = Pseudovirus, read-out: Co-treatment IC90
[4] = Severe acute respiratory syndrome coronavirus 2, Vero, 120 h
[5] = Pseudovirus, read-out: Co-treatment IC50
[6] = Pseudovirus, read-out: Pre-treatment IC50
[7] = Pseudovirus, read-out: Pre-treatment IC90

SMILES: NC(=O)c1ncn([C@@H]2O[C@H](CO)[C@@H](O)[C@H]2O)n1 [Ribavirin]
- inhibitory effect on VSV-G (VSV-G): significant inhibitor effects
- IC50 ([1]; Pseudovirus, 12 h): 9.29 µM
- IC90 ([1]; Pseudovirus, 12 h): 62.1 µM

SMILES: CCN(CC)CCOc1ccc(C(=C(Cl)c2ccccc2)c2ccccc2)cc1 [Clomiphene]
- survival benefit for infected mice (Ebola virus): 90%

SMILES: CN(C)c1ccc2nc3ccc(=[N+](C)C)cc-3sc2c1 [Methylene Blue]
- IC50 ([1]; Pseudovirus, 12 h): 9.05 µM
- IC90 ([1]; Pseudovirus, 12 h): 70.5 µM

SMILES: CCN(CC)CCOc1ccc(C(=C(Cl)c2ccccc2)c2ccccc2)cc1 [Clomiphene (citrate)]
- IC90 [1, 3]: 19.6 µM
- CC50 (in vitro; Co-treatment CC50): 54.4 µM
- CC50 (in vitro; Pre-treatment CC50): 24.9 µM
- IC90 [2, 4]: 33.9 µM

SMILES: CC[C@@H]1/C=C(\C)C[C@H](C)C[C@H](OC)[C@H]2O[C@@](O)(C(=O)C(=O)N3CCCC[C@H]3C(=O)O[C@H](/C(C)=C/[C@@H]3CC[C@H](Cl)[C@H](OC)C3)[C@H](C)[C@@H](O)CC1=O)[C@H](C)C[C@@H]2OC [Pimecrolimus]
- cytotoxicity compared with the other selected drugs (BHK21-hACE2 cells): more serious cytotoxic than other drugs
- IC90 [1]: 32 µM
- IC50 ([1]; Pseudovirus, 12 h): 11.3 µM
- IC90 ([1]; Pseudovirus, 12 h): < 50 µM

SMILES: Br.Cc1ccc(Sc2ccccc2N2CCNCC2)c(C)c1 [Vortioxetine (hydrobromide)]
- IC50 ([1]; read-out: IC50): 6.99 µM
- IC90 ([1]; read-out: IC90): < 50 µM and 44.6 µM
- IC50 [2]: 28.1 µM
- IC90 [2]: 62.8 µM
- inhibitory effect relative to Chloroquine diphosphate [2]: slightly less effective

SMILES: CCN(CC)CCCC(C)Nc1ccnc2cc(Cl)ccc12 (stereo not shown) [Chloroquine diphosphate]
- IC50 ([1]; Pseudovirus, 12 h): 11.6 µM
- IC90 ([1]; Pseudovirus, 12 h): 85.2 µM
- IC50 [1, 5]: 27.6 µM
- IC50 [1, 6]: 9.27 µM
- IC90 [1, 7]: 35.2 µM
- IC50 [2, 4]: 5.33 µM
- IC90 [2, 4]: 12.9 µM

SMILES: CN1CCN(CCCN2c3ccccc3Sc3ccc(C(F)(F)F)cc32)CC1.Cl.Cl [Trifluoperazine (dihydrochloride)]
- cytotoxicity compared with the other selected drugs (BHK21-hACE2 cells): more serious cytotoxic than other drugs
- IC50 ([1]; read-out: IC50): 5.44 µM
- IC90 ([1]; read-out: IC90): < 50 µM and 27.3 µM

SMILES: CN1C[C@@H]2c3ccccc3Oc3ccc(Cl)cc3[C@H]2C1.Cl (racemic) [Asenapine (hydrochloride)]
- cell cytotoxicity (BHK21-hACE2 cells; at the concentration of 100 μM): no obvious cell cytotoxicity was observed
- IC90 ([1]; read-out: IC90): 76.4 µM
- IC90 [2]: 43 µM

SMILES: CCCCc1oc2ccccc2c1C(=O)c1cc(I)c(OCCN(CC)CC)c(I)c1.Cl [Amiodarone (hydrochloride)]
- effect on authentic SARS-CoV-2 virus infection ([2]; at a concentration of 100 μM): no effect

SMILES: CN(C)CCOc1ccc(/C(=C(/CCCl)c2ccccc2)c2ccccc2)cc1 [Toremifene (Citrate)]
- IC50 ([1]; read-out: IC50): 5.53 µM
- IC90 ([1]; read-out: IC90): 86.5 µM

SMILES: CN1CCc2c(c3ccccc3n2Cc2ccccc2)C1 [Mebhydrolin (napadisylate)]
- IC50 ([1]; read-out: IC50): 12.1 µM
- IC90 ([1]; read-out: IC90): 133 µM

SMILES: Cc1ccc(Sc2ccccc2N2CCNCC2)c(C)c1 [Vortioxetine]
- IC90 [1]: 46.6 µM
- IC50 ([1]; Pseudovirus, 12 h): 7.16 µM
- IC90 ([1]; Pseudovirus, 12 h): < 50 µM
- IC50 [1, 5]: 6.77 µM
- IC90 [1, 3]: 22.3 µM
- IC50 [1, 6]: 3 µM
- IC90 [1, 7]: 13.8 µM
- CC50 (in vitro; Co-treatment CC50): 27.1 µM
- CC50 (in vitro; Pre-treatment CC50): 28.5 µM
- IC50 [2, 4]: 8.03 µM
- IC90 [2, 4]: 18.3 µM
- inhibitory effect relative to Chloroquine diphosphate [2]: comparable to Chloroquine diphosphate
